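Step 1: Grow cells in 96-well plates. Step 2: Expose to compound for 48 hours at 5 concentrations. Step 3: Interpolate endpoints linearly; if unreached, use highest concentration. GI50 is the concentration that inhibits growth by half.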 Activity calls are given as the source filed them. Rule as the data show it: active = GI50 up to about 1.1 µM and inactive = higher.
Legend:
Assay in all cases: DTP human tumour cell line panel, 48 h
786-0 = tested on: 786-0
HCC 2998 = tested on: HCC 2998
HT-29 = tested on: HT-29
IGROV-1 = tested on: IGROV-1
M14 = tested on: M14
MDA-MB-231 = tested on: MDA-MB-231
MDA-MB-435 = tested on: MDA-MB-435
Malme-3M = tested on: Malme-3M
NCI-H460 = tested on: NCI-H460
NCI-H522 = tested on: NCI-H522
NCI/ADR-RES = tested on: NCI/ADR-RES
OVCAR-8 = tested on: OVCAR-8
SF-268 = tested on: SF-268
TK-10 = tested on: TK-10
U-251 = tested on: U-251
UO-31 = tested on: UO-31
OVCAR-4 = tested on: OVCAR-4
SN12C = tested on: SN12C
T47D = tested on: T47D
SK-MEL-2 = tested on: SK-MEL-2

Measured: GI50

Cc1c(NC(=S)Nc2ccc([N+](=O)[O-])cc2)c(=O)n(-c2ccccc2)n1C
inactive: 786-0 > 100 µM | HCC 2998 > 100 µM | HT-29 > 100 µM | IGROV-1 > 100 µM | M14 > 100 µM | MDA-MB-231 > 100 µM | MDA-MB-435 > 100 µM | Malme-3M > 100 µM | NCI-H460 > 100 µM | NCI-H522 > 100 µM | NCI/ADR-RES > 100 µM | OVCAR-8 > 100 µM | SF-268 > 100 µM | TK-10 > 100 µM | U-251 > 100 µM | UO-31 > 100 µM

N#CC12C(=O)NC(=O)C1(C#N)C1C=CC2CC1 (centres undefined)
inactive: 786-0 > 100 µM | HT-29 > 100 µM | M14 > 100 µM | MDA-MB-435 > 100 µM | Malme-3M > 100 µM | NCI-H522 > 100 µM | NCI/ADR-RES > 100 µM | OVCAR-4 > 100 µM | OVCAR-8 > 100 µM | SF-268 > 100 µM | SN12C > 100 µM | T47D > 100 µM | TK-10 > 100 µM | U-251 > 100 µM | UO-31 > 100 µM

CC1=C(NC(=O)/C(=N/NC(=S)NN)C2C(=O)CC(C)(C)CC2=O)C(=O)c2ccccc2C1=O
inactive: 786-0 10.9 µM | HCC 2998 10.8 µM | HT-29 11.1 µM | IGROV-1 5.21 µM | M14 6.47 µM | Malme-3M 16 µM | NCI-H460 17.7 µM | NCI-H522 2.85 µM | OVCAR-4 13.7 µM | OVCAR-8 4.55 µM | SF-268 8.18 µM | SK-MEL-2 6.14 µM | SN12C 7.4 µM | TK-10 16.1 µM | U-251 3.91 µM | UO-31 12.8 µM

CCOC(=O)C12C3CCC1C2C(=O)C3 (centres undefined)
inactive: 786-0 > 100 µM | HCC 2998 > 100 µM | HT-29 > 100 µM | IGROV-1 > 100 µM | M14 > 100 µM | MDA-MB-231 > 100 µM | MDA-MB-435 > 100 µM | Malme-3M > 100 µM | NCI-H460 > 100 µM | NCI-H522 > 100 µM | NCI/ADR-RES > 100 µM | OVCAR-4 > 100 µM | OVCAR-8 > 100 µM | SF-268 > 100 µM | SK-MEL-2 > 100 µM | SN12C > 100 µM | TK-10 > 100 µM | U-251 > 100 µM | UO-31 > 100 µM

CCOC(=O)Cc1csc(N/C=C2/C(=O)Oc3ccccc3C2=O)n1
inactive: 786-0 26.4 µM | HT-29 39.1 µM | IGROV-1 19.1 µM | M14 23.8 µM | MDA-MB-435 23.9 µM | Malme-3M 1.79 µM | NCI-H460 45.4 µM | NCI-H522 13.5 µM | NCI/ADR-RES 17.7 µM | OVCAR-4 31.7 µM | OVCAR-8 13.1 µM | SF-268 24.8 µM | SK-MEL-2 13.6 µM | TK-10 24.7 µM | U-251 20 µM | UO-31 14.9 µM

O=C1Cc2ccccc2CCc2ccccc21
inactive: 786-0 > 100 µM | HCC 2998 > 100 µM | HT-29 > 100 µM | IGROV-1 > 100 µM | M14 > 100 µM | Malme-3M 44.7 µM | NCI-H460 > 100 µM | NCI-H522 68.9 µM | OVCAR-4 > 100 µM | OVCAR-8 > 100 µM | SF-268 > 100 µM | SK-MEL-2 64.1 µM | SN12C > 100 µM | TK-10 > 100 µM | U-251 > 100 µM | UO-31 45.4 µM

CC1=NN(c2ccccc2)C(=O)/C1=C\c1ccc([N+](=O)[O-])cc1
inactive: 786-0 29.1 µM | HCC 2998 25.6 µM | HT-29 28.3 µM | IGROV-1 29.6 µM | M14 30.8 µM | Malme-3M 23.9 µM | NCI-H460 34 µM | NCI-H522 21.8 µM | OVCAR-4 19.3 µM | OVCAR-8 31.2 µM | SF-268 38.6 µM | SK-MEL-2 21.9 µM | SN12C 32.1 µM | TK-10 48.8 µM | U-251 41.3 µM | UO-31 32.3 µM

Oc1ccc(-c2c3ccccc3c(-c3ccc(O)cc3)c3ccccc23)cc1
inactive: 786-0 > 100 µM | HCC 2998 > 100 µM | HT-29 > 100 µM | IGROV-1 > 100 µM | M14 > 100 µM | Malme-3M > 100 µM | NCI-H460 > 100 µM | NCI-H522 > 100 µM | OVCAR-4 > 100 µM | OVCAR-8 > 100 µM | SF-268 > 100 µM | SK-MEL-2 > 100 µM | SN12C > 100 µM | TK-10 > 100 µM | U-251 > 100 µM | UO-31 > 100 µM

O=C(c1nc2ccccc2nc1O)C(O)c1ccccc1 (centres undefined)
inactive: 786-0 > 100 µM | HCC 2998 53.7 µM | HT-29 > 100 µM | IGROV-1 > 100 µM | M14 > 100 µM | Malme-3M > 100 µM | NCI-H460 > 100 µM | NCI-H522 22.2 µM | OVCAR-4 95.3 µM | OVCAR-8 > 100 µM | SF-268 86.7 µM | SK-MEL-2 > 100 µM | SN12C > 100 µM | TK-10 > 100 µM | U-251 43.7 µM | UO-31 94.8 µM

CCOC(=O)CSc1nnc(C(Sc2nc(-c3ccccc3)c(-c3ccccc3)[nH]2)C(C)C)n1-c1ccccc1 (centres undefined)
inactive: 786-0 16 µM | HCC 2998 19.2 µM | HT-29 14 µM | IGROV-1 > 10 µM | M14 14.3 µM | MDA-MB-231 24.4 µM | Malme-3M 17.5 µM | NCI-H460 17.5 µM | NCI-H522 15.2 µM | NCI/ADR-RES 26.9 µM | OVCAR-4 17.5 µM | OVCAR-8 19.1 µM | SF-268 17.9 µM | SK-MEL-2 16.1 µM | SN12C 15.9 µM | T47D 28.3 µM | TK-10 21.5 µM | U-251 > 10 µM | UO-31 17.4 µM

Cc1ccc(C)c(NC(=O)C(=O)C2C(=O)C3=C(CC2(C)C)Nc2ccccc2S3)c1 (centres undefined)
inactive: 786-0 61.8 µM | HCC 2998 > 100 µM | HT-29 > 100 µM | IGROV-1 69.7 µM | M14 > 100 µM | MDA-MB-231 97.1 µM | MDA-MB-435 > 100 µM | NCI-H460 > 100 µM | NCI-H522 > 100 µM | NCI/ADR-RES 65.2 µM | OVCAR-4 > 100 µM | OVCAR-8 33.8 µM | SF-268 62.7 µM | SK-MEL-2 > 100 µM | SN12C > 100 µM | TK-10 > 100 µM | U-251 87.9 µM | UO-31 53.8 µM

NNC(=O)CCC(=O)Nc1cc(Cl)c(Cl)cc1Cl
inactive: 786-0 > 100 µM | HCC 2998 > 100 µM | HT-29 > 100 µM | IGROV-1 > 100 µM | M14 > 100 µM | Malme-3M > 100 µM | NCI-H460 > 100 µM | NCI-H522 > 100 µM | OVCAR-4 51.5 µM | OVCAR-8 > 100 µM | SF-268 > 100 µM | SK-MEL-2 > 100 µM | SN12C > 100 µM | TK-10 > 100 µM | U-251 > 100 µM | UO-31 > 100 µM
